Source: patent US20240210394A1, “MICROORGANISM CAPTURE FROM ANTIMICROBIAL-CONTAINING SOLUTION” (MOMENTUM BIOSCIENCE LIMITED, priority 2019, published 2024)
Values joined by “and” are separate entries in the source; they are usually repeats but may differ in a detail not shown here. Identical values can stand only once.

Experiments:
[1] = system: E. coli; test: Confirm PCR multiplex (microbial DNA, GrNeg channel) after microbial capture; type: cell-based; design: key: Ct values (qPCR cycle threshold)
[2] = system: S. aureus; test: Total viable count (TVC) plate counts of spiked samples (T0/T2); type: cell-based; settings: for TVC T2: 100 μL plated after 2 h at 37° C.; for TVC T0: 100 μL plated at time 0
Method: Test dilution(s) of organism was added to blood+antibiotic or blood only at 10 μL per mL of blood (sufficient prepared for experiment requirements). 100 μL plate count sample was taken (TO sample).
The inoculated samples were incubated at 37° C. (static) for 2-hour. 100 μL plate count sample was taken (T2 sample).
For the ‘rescue’ test, 5 mL of spiked blood+abx or blood only was treated with Momentum Capture Beads (Streptavidin-coated, −300 nm beads, Bio estapor, Merk Cat #BE-M 08/0.3) as below: • Momentum Capture Beads diluted in Detergent-free Microbial Binding Buffer (DMBB—Tris+NaCl)—50 μL beads:700 μL DMBB per clean-up • 750 μL of diluted beads added to 50 mL conical centrifuge tube • 5 mL of broth medium added to tube • 5 mL of spiked blood+abx or blood only added to tube • Incubate on ITL TherMix (Integrated Technologies Ltd. Kent, UK), 32.5° C./30 min/1000 rpm—ramped speed protocol • Magnetise on V&P magnet (V&P scientific Inc, CA, US) for 5 min then remove supernatant • Resuspend beads in 1 mL Detergent-free Wash Buffer (DWB—Tris+NaCl) off magnet and transfer to 2 mL Eppendorf flip-top tube on DynaMag-2 magnet (Thermo Fisher Scientific, Life Technologies Ltd. Paisley, UK) • Magnetise for 5 min then remove supernatant • Resuspend beads in 1 mL DWB off magnet then replace on DynaMag-2 magnet • Magnetise for 5 min then remove supernatant • Resuspend beads in 1 mL DWB, add to a fresh, unused blood culture bottle (BioMerieux SA culture bottle) containing standard blood culture growth medium using a vial adapter, and start incubation (adapter removed). • Blood culture bottles are incubated in the automated blood culture cabinet (BacT/ALERT BioMerieux) which records time to positivity. The “Flip” time is when a bottle turns positive as determined by the automated blood culture cabinet. • “Flip” time of each bottle is recorded. • Plate counts (Total Viable Count TVC) are recorded.
Day 2: Prepare ten-fold serial dilution of overnight culture in blood/broth as required • Antibiotic added to whole blood (defibrinated horse blood) at required level • Whole blood as no-antibiotic control • Test dilution(s) of organism added to blood+antibiotic or blood only at 10 μL per mL of blood (sufficient prepared for experiment requirements) • 100 μL plate count sample taken (TO sample) • 2-hour incubation at 37° C. (static), to mimic organism exposure to antimicrobials in the patient • 100 μL plate count sample taken (T2 sample) • 5 mL of spiked blood+abx or blood only added to blood culture bottle (using vial adapter) and incubation started (adapter removed) • 5 mL of spiked blood+abx or blood only (from same source) treated with Momentum Capture Beads as below: • 1. […]
Day 3: Plate counts recorded. […]

[3] = S. aureus spike dil 10-3 in blood + Piperacillin 96 ug/ml
[4] = S. aureus spike dil 10-4 in blood + Piperacillin 96 ug/ml

| Compound | Confirm GrNeg results ([1]; WB SPS 0.01 %, EC 1-3 replicates) | Confirm GrNeg results ([1]; WB SPS 0.01 %, NSC 1-3 replicates) | Confirm GrNeg results ([1]; WB SPS 0.02 %, EC 1-3 replicates) | Confirm GrNeg results ([1]; WB SPS 0.02 %, NSC 1-3 replicates) | Confirm GrNeg results ([1]; WB SPS 0.04 %, EC 1-3 replicates) | Confirm GrNeg results ([1]; WB SPS 0.04 %, NSC 1-3 replicates) | Confirm GrNeg results ([1]; WB SPS 0.06 %, EC 1-3 replicates) | Confirm GrNeg results ([1]; WB SPS 0.06 %, NSC 1-3 replicates) | Confirm GrNeg results ([1]; WB SPS 0.08 %, EC 1-3 replicates) | Confirm GrNeg results ([1]; WB SPS 0.08 %, NSC 1-3 replicates) | Confirm GrNeg results ([1]; WB SPS 0.1 %, EC 1-3 replicates) | Confirm GrNeg results ([1]; WB SPS 0.1 %, NSC 1-3 replicates) | TVC T2 [2, 3] | TVC T0 [2, 3] | TVC T2 [2, 4] | TVC T0 [2, 4] |
| --- | --- | --- | --- | --- | --- | --- | --- | --- | --- | --- | --- | --- | --- | --- | --- | --- |
| Sodium polyanethol sulfonate [SPS] | 27.94 and 29.18 and 28.32 | NoCt | 29.15 and 28.16 and 29.75 | NoCt | 28.71 and 28.75 and 29.82 | NoCt | 31.58 and 29.77 and 29.26 | NaCt and NoCt (2×) | 29.20 and 29.80 and 28.87 | NoCt | 29.27 and 28.65 and 29.61 | 47.82 and NoCt (2×) | – | – | – | – |
| CCN1CCN(C(=O)N[C@@H](C(=O)N[C@@H]2C(=O)N3[C@@H]2SC(C)(C)[C@@H]3C(=O)O)c2ccccc2)C(=O)C1=O [Piperacillin] | – | – | – | – | – | – | – | – | – | – | – | – | 2 | 98 | 0 | 15 |
